Experimental data: patent publication US12171813B2, “Methods of and compositions for reducing gene expression and/or activity” (Christiana Care Gene Editing Institute, Inc., priority 2021, dated 2024)

Assays:
NRF2 = assay: cDNA PCR analysis of exon skipping / full-size transcript in NFE2L2; format: cell-based, Human; conditions: gRNA individually applied in the CRISPR reaction; NCI-H1703 clone 44-25 cells
Description: After CRISPR reactions, total RNA was prepared, and cDNA synthesized for PCR amplification of the target region from NRF2. PCR-amplified DNA was then analyzed by electrophoresis through a 1% agarose gel for 75 minutes at 80v. DNA was stained with SYBR Safe. Lanes 1 and 10: NEB 2 Log Ladder; Lane 2: Scrambled gRNA; Lane 3: NRF2 3-4 SureKill gRNA 3 alone; Lane 4: NRF2 3-4 SureKill gRNA 12 alone; Lane 5: NRF2 3-4 SureKill gRNA 14 alone; Lane 6: NRF2 3-4 SureKill gRNA 15 alone; Lane 7: NRF2 3-4 SureKill gRNA 21 alone; Lane 8: NRF2 3-4 SureKill gRNA 25 alone; Lane 9: NRF2 3-4 SureKill gRNA 26 alone. On the left side of the image are markers indicating DNA size in bp.
After CRISPR reactions, total RNA was prepared, and cDNA synthesized for PCR amplification of the target region from NRF2. PCR-amplified DNA was then analyzed by electrophoresis through a 1% agarose gel for 75 minutes at 80v. DNA was stained with SYBR Safe. Lane 1: NEB 2 Log Ladder; Lane 2: Scrambled gRNA; Lane 3: R34G gRNA alone; Lane 4: NRF2 3-4 SureKill gRNA 3+R34G gRNA; Lane 5: NRF2 3-4 SureKill gRNA+R34G gRNA; Lane 6: NRF2 3-4 SureKill gRNA 14+R34G gRNA. […]
(§1) Transfections were carried out using the Lonza Nuclefector 4d. […] RNPs were complexed at 250:50 pmol for 30 minutes prior to transfection, during which time cells were harvested and counted. […]

NRF2 gene = assay: Genomic DNA PCR assessment of large deletions in NRF2 gene; format: cell-based, Human; conditions: gRNA alone, not paired
Description: After CRISPR reactions, genomic DNA was prepared for PCR amplification of the target region from NRF2 gene. PCR-amplified DNA was then analyzed by electrophoresis through a 1% agarose gel for 75 minutes at 80v. DNA was stained with SYBR Safe. Lanes 1 and 12: NEB 2 Log Ladder; Lane 2: Scrambled gRNA; Lane 3: R34G gRNA alone; Lane 4: NRF2 3-4 SureKill gRNA 3 alone; Lane 5: NRF2 3-4 SureKill gRNA 12 alone; Lane 6: NRF2 3-4 SureKill gRNA 14 alone; Lane 7: NRF2 3-4 SureKill gRNA 15 alone; Lane 8: NRF2 3-4 SureKill gRNA 3+R34G gRNA; Lane 9: NRF2 3-4 SureKill gRNA 12+R34G gRNA; Lane 10: NRF2 3-4 SureKill gRNA 14+R34G gRNA; Lane 11: NRF2 3-4 SureKill gRNA 15+R34G gRNA. On the left side of the image are markers indicating DNA size in bp. Expected dropout size for NRF2 3-4 SureKill gRNA 3+R34G gRNA: 676 bp. Expected dropout size for NRF2 3-4 SureKill gRNA 12+R34G gRNA: 658 bp. Expected dropout size for NRF2 3-4 SureKill gRNA 14+R34G gRNA: 582 bp. Expected dropout size for NRF2 3-4 SureKill gRNA 15+R34G gRNA: 515 bp. Dropout bands are indicated by asterisks.
Human lung squamous cell carcinoma NCI-H1703 clone 44-25 cells were derived from NCI-H1703 cells (#CRL-5889) which were purchased from ATCC (Manassas, VA, USA). […]
as §1

## R34G gRNA: guide RNA GATATAGATCTTGGAGTAAG, SEQ ID NO:1, targets NRF2 R34G mutation (listed as DNA, chemistry not given here)
NRF2
  exon skipping (cDNA analysis): induced some level of exon skipping
NRF2 gene
  large deletions (genomic DNA PCR): does not induce a large deletion
